# Results: patent US20220340597A1, “HEXAHYDRO-1H-PYRAZINO[1,2-A]PYRAZINE COMPOUNDS FOR THE TREATMENT OF AUTOIMMUNE DISEASE” (Hoffmann-La Roche Inc., priority 2019, published 2022)
# Assays:
# human TLR7 = target: T1, human TLR7 (Homo sapiens, UniProt Q9NYK1); assay: HEK293-Blue-hTLR-7 cells assay; format: cell-based; settings: HEK293-Blue-hTLR7 cells, R848 stimulation, 20 hrs, SEAP reporter; read-out: HEK/hTLR7 IC50
# T1 construct: host or cells: HEK293 (HEK-Blue hTLR7)
# T1 sequence (Q9NYK1 27-1049): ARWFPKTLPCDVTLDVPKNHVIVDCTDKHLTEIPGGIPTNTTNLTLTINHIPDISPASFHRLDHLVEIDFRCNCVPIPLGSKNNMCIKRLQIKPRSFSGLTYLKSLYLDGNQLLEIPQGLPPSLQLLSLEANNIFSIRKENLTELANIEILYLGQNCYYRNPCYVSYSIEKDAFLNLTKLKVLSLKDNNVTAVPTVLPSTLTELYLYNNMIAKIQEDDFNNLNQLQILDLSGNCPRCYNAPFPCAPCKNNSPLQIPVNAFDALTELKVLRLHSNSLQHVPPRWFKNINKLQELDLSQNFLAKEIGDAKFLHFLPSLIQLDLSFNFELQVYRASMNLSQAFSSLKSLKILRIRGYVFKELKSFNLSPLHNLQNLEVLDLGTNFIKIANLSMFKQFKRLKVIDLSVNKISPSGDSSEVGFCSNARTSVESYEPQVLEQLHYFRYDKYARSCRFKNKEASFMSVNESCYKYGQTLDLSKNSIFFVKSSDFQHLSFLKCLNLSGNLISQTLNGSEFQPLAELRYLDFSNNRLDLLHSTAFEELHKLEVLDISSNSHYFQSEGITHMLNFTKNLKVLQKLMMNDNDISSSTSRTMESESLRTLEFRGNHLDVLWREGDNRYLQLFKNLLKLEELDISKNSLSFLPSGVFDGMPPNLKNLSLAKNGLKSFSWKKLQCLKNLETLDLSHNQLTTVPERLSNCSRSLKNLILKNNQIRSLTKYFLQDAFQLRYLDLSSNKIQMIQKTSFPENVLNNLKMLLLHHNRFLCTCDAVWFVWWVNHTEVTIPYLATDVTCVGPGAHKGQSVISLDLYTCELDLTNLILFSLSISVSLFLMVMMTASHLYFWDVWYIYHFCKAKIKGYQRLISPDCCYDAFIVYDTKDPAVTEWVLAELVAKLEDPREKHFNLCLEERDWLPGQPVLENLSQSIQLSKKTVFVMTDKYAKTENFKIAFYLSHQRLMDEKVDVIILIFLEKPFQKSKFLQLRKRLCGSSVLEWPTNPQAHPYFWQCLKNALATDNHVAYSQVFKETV
# hERG channel = target: T2, hERG channel (Homo sapiens, UniProt Q12809); assay: hERG channel inhibition assay (patch-clamp, CHOhERG cells); format: cell-based; settings: for IC50 / IC20: CHOhERG cells, whole-cell patch-clamp; for IC20: human, CHO cells stably expressing hERG (CHOhERG); for hERG IC20/TLR7 IC50 / hERG IC20/TLR8 IC50 / hERG IC20/TLR9 IC50: safety ratio
# T2 construct: expressed in transfected cells; host or cells: CHO (Chinese hamster ovary), CHOhERG
# T2 sequence (Q12809 whole entry): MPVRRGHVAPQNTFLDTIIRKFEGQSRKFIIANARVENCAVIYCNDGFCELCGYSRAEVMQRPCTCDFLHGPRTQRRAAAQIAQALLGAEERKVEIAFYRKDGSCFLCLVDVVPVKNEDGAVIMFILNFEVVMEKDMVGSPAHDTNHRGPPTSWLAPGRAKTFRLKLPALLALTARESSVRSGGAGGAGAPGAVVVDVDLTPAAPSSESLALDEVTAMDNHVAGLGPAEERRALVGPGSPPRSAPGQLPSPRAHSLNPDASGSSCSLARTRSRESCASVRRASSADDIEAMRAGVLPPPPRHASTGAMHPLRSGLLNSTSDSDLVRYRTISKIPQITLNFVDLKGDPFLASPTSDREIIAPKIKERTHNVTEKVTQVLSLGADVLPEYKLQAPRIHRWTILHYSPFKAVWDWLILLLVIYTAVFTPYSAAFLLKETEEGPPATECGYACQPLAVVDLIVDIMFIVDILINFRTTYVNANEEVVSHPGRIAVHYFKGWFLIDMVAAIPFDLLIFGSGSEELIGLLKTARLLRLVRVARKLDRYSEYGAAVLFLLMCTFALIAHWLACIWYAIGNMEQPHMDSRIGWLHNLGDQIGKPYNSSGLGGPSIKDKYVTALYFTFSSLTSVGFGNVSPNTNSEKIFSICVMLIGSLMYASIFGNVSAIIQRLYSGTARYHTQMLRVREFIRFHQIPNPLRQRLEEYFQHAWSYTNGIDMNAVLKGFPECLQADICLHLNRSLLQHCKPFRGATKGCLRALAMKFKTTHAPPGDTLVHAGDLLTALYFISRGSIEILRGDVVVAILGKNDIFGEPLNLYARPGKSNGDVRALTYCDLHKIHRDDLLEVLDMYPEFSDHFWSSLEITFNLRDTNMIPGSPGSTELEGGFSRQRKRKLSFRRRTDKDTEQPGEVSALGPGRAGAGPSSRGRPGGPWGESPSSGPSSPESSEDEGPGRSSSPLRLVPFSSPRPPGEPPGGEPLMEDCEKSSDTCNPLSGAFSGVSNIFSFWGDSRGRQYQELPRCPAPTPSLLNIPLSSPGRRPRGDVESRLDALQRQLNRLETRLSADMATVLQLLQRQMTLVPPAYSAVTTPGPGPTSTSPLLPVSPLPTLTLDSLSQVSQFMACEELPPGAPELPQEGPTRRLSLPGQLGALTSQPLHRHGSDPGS
# Description: hERG Channel Inhibition Assay:
# The hERG K^+ channels were cloned in humans and stably expressed in a CHO (Chinese hamster ovary) cell line. CHOhERG cells were used for patch-clamp (voltage-clamp, whole-cell) experiments. Cells were stimulated by a voltage pattern to activate hERG channels and conduct IKhERG currents (rapid delayed outward rectifier potassium current of the hERG channel). After the cells were stabilized for a few minutes, the amplitude and kinetics of IKhERG were recorded at a stimulation frequency of 0.1 Hz (6 bpm). Thereafter, the test compound was added to the preparation at increasing concentrations. For each concentration, an attempt was made to reach a steady-state effect, usually, this was achieved within 3-10 min at which time the next highest concentration was applied. The amplitude and kinetics of IKhERG are recorded in each concentration of the drug which were compared to the control values (taken as 100%). (references: Redfern W S, Carlsson L, Davis A S, Lynch W G, MacKenzie I, Palethorpe S, Siegl P K, Strang I, Sullivan A T, Wallis R, Camm A J, Hammond T G. 2003; Relationships between preclinical cardiac electrophysiology, clinical QT interval prolongation and torsade de pointes for a broad range of drugs: evidence for a provisional safety margin in drug development. Cardiovasc. Res. 58:32-45, Sanguinetti M C, Tristani-Firouzi M. 2006; hERG potassium channels and cardiac arrhythmia. Nature 440:463-469, Webster R, Leishman D, Walker D. 2002; Towards a drug concentration effect relationship for QT prolongation and torsades de pointes. Curr. Opin. Drug Discov. Devel. 5:116-26).
# The calculation of hERG IC20/TLR7/8/9 IC50 below serves as early selectivity index to assess hERG liability.
Compound,IC50 (human TLR7) [µM],IC50 (hERG channel) [µM],IC20 (hERG channel) [µM],hERG IC20/TLR7 IC50 (hERG channel),hERG IC20/TLR8 IC50 (hERG channel),hERG IC20/TLR9 IC50 (hERG channel)
"C[C@@H]1CN(c2ccc(C#N)c3ncccc23)C[C@@H]2CN(c3cc(N4CCNCC4)ccn3)CCN21 [Example 34, 5-[(4R,9aR)-4-methyl-8-(4-piperazin-1-yl-2-pyridyl)-3,4,6,7,9,9a-hexahydro-1H-pyrazino[1,2-a]pyrazin-2-yl]quinoline-8-carbonitrile]",0.02,> 10,4.74,237,339,113
"CO[C@@H]1CN(c2nc(C)cc(N3CCN4[C@@H](C3)CN(c3ccc(C#N)c5ncccc35)C[C@H]4C)n2)C[C@H]1N [Example 45, 5-[(4R,9aR)-8-[2-[(3R,4R)-3-amino-4-methoxy-pyrrolidin-1-yl]-6-methyl-pyrimidin-4-yl]-4-methyl-3,4,6,7,9,9a-hexahydro-1H-pyrazino[1,2-a]pyrazin-2-yl]quinoline-8-carbonitrile]",0.018,> 20,> 10,>556,>357,>124
"CO[C@@H]1CN(c2ccnc(N3CCN4[C@@H](C3)CN(c3ccc(C#N)c5ncccc35)C[C@H]4C)n2)C[C@H]1N [Example 37, 5-[(4R,9aR)-8-[4-[(3R,4R)-3-amino-4-methoxy-pyrrolidin-1-yl]pyrimidin-2-yl]-4-methyl-3,4,6,7,9,9a-hexahydro-1H-pyrazino[1,2-a]pyrazin-2-yl]quinoline-8-carbonitrile]",0.021,> 10,4.5,214,173,73
"[2H]c1ccc2c(N3C[C@@H]4CN(c5ccc([C@@H]6CNCCO6)cc5)CCN4[C@@H](C)C3)ccc(C#N)c2n1 [Example 106, 5-[(4S,9aS)-4-methyl-8-[4-[(2R)-morpholin-2-yl]phenyl]-3,4,6,7,9,9a-hexahydro-1H-pyrazino[1,2-a]pyrazin-2-yl]-2-deuterio-quinoline-8-carbonitrile]",0.002,> 20,> 10,>5000,>2500,>78
"C[C@@H]1CN(c2ccc(C#N)c3ncccc23)C[C@@H]2CN(CCc3ccc(N4CC5(CN(C)C5)C4)nc3)CCN21 [Example 22, 5-[(4R,9aS)-4-methyl-8-[2-[6-(6-methyl-2,6-diazaspiro[3.3]heptan-2-yl)-3-pyridyl]ethyl]-3,4,6,7,9,9a-hexahydro-1H-pyrazino[1,2-a]pyrazin-2-yl]quinoline-8-carbonitrile]",0.026,> 20,> 10,>385,>172,>213
"CO[C@@H]1CN(c2ccc(CCN3CCN4[C@@H](C3)CN(c3ccc(C#N)c5ncccc35)C[C@H]4C)cn2)C[C@H]1N [Example 12, 5-[(4R,9aS)-8-[2-[6-[(3R,4R)-3-amino-4-methoxy-pyrrolidin-1-yl]-3-pyridyl]ethyl]-4-methyl-3,4,6,7,9,9a-hexahydro-1H-pyrazino[1,2-a]pyrazin-2-yl]quinoline-8-carbonitrile]",0.012,> 20,> 10,>833,>714,>213
"[2H]c1ccc2c(N3C[C@@H]4CN(c5ccc(N6CC7CCC(C6)N7)nc5)CCN4[C@@H](C)C3)ccc(C#N)c2n1 [Example 112, 5-[(4S,9aR)-8-[6-(3,8-diazabicyclo[3.2.1]octan-3-yl)-3-pyridyl]-4-methyl-3,4,6,7,9,9a-hexahydro-1H-pyrazino[1,2-a]pyrazin-2-yl]-2-deuterio-quinoline-8-carbonitrile]",0.004,> 20,> 10,>2500,>1000,>122
"[2H]c1ccc2c(N3C[C@@H]4CN(c5ncc(N6C[C@@H]7C[C@H]6CN7)cc5C)CCN4[C@@H](C)C3)ccc(C#N)c2n1 [Example 111, 5-[(4S,9aR)-8-[5-[(1S,4S)-2,5-diazabicyclo[2.2.1]heptan-2-yl]-3-methyl-2-pyridyl]-4-methyl-3,4,6,7,9,9a-hexahydro-1H-pyrazino[1,2-a]pyrazin-2-yl]-2-deuterio-quinoline-8-carbonitrile]",0.006,> 20,> 10,>1666,>2000,>84
"C[C@@H]1CN(c2ccc(C#N)c3ncccc23)C[C@@H]2CN(c3nccc(N4CCNCC4)n3)CCN21 [Example 30, 5-[(4R,9aR)-4-methyl-8-(4-piperazin-1-ylpyrimidin-2-yl)-3,4,6,7,9,9a-hexahydro-1H-pyrazino[1,2-a]pyrazin-2-yl]quinoline-8-carbonitrile]",0.016,> 10,4.53,283,216,63
"C[C@@H]1CN(c2ccc(C#N)c3ncccc23)C[C@@H]2CN(Cc3ccc(N4CCNCC4)nc3)CCN21 [Example 8, 5-[(4R,9aS)-4-methyl-8-[(6-piperazin-1-yl-3-pyridyl)methyl]-3,4,6,7,9,9a-hexahydro-1H-pyrazino[1,2-a]pyrazin-2-yl]quinoline-8-carbonitrile]",0.022,> 20,8.63,392,166,210
"[2H]c1ccc2c(N3C[C@@H]4CN(c5ccc(CCN6C[C@H](OC)[C@@H](N)C6)cn5)CCN4[C@H](C)C3)ccc(C#N)c2n1 [Example 109, 5-[(4R,9aR)-8-[5-[2-[(3S,4S)-3-amino-4-methoxy-pyrrolidin-1-yl]ethyl]-2-pyridyl]-4-methyl-3,4,6,7,9,9a-hexahydro-1H-pyrazino[1,2-a]pyrazin-2-yl]-2-deuterio-quinoline-8-carbonitrile]",0.005,> 20,> 10,>2000,>2500,>90
"Cc1cc(N2CCNCC2)ncc1N1CCN2CCN(c3ccc(C#N)c4ncccc34)CC2C1 (stereo not drawn) [Example 38, 5-[2-(4-methyl-6-piperazin-1-yl-3-pyridyl)-3,4,6,7,9,9a-hexahydro-1H-pyrazino[1,2-a]pyrazin-8-yl]quinoline-8-carbonitrile]",0.002,> 20,> 10,>5000,>1250,>108
"CO[C@@H]1CN(c2nccc(N3CCN4[C@@H](C3)CN(c3ccc(C#N)c5ncccc35)C[C@H]4C)n2)C[C@H]1N [Example 36, 5-[(4R,9aR)-8-[2-[(3R,4R)-3-amino-4-methoxy-pyrrolidin-1-yl]pyrimidin-4-yl]-4-methyl-3,4,6,7,9,9a-hexahydro-1H-pyrazino[1,2-a]pyrazin-2-yl]quinoline-8-carbonitrile]",0.013,> 20,5.6,431,373,82
